{"source": "patent US20220364132A1", "about": "“METHOD FOR FORMING A STORAGE STABLE H[…] A LIGNO[…]” (Sekab E- Technology AB, priority 2019, published 2022)", "key": {"Lactobacillus sp. [1]": {"test_system": "Lactobacillus sp.", "assay": "Bacterial contamination in a sugar-rich hydrolysate comprising 10% non-detoxified spruce hydrolysate, glucose by HPLC", "format": "cell-based", "conditions": "Experiment C, 40 mM, 508 h", "method": "(§1) To test the theory, synthetic media was made containing about 90 g/l glucose, 0.5% sodium phosphate/phosphoric acid buffer (pH 5.5), 0.5 g/l diammonium phosphate, 2 g/l yeast extract and 2 g/l peptone. This solution (45 ml) was added to 50 ml serum bottles, along with a magnetic stirrer bar, and autoclaved, where after sodium sulfite at concentrations of 5, 10, 20 and 40 mM was added, while some bottles had no sulfite added, which served as control (0 mM). […] This culture was incubated at 37° C. for 36 hours and used to inoculate all the serum bottles (10% v/v). The serum bottles were then sealed with an airtight septum and a metal ring clamp and two needles were inserted through the septum to allow for sampling. The serum bottles were placed on a magnetic stirrer plate at room temperature (since storage tanks are typically kept at room temperature), with stirring at 100 rpm. Samples were taken periodically and analyzed for glucose and lactic acid using HPLC. Experiments were performed in triplicate. The experiments were continued for 11 days.\nExperiments in this example were performed according to the description in example 2 with the difference that the sugar-rich hydrolysate contained 10% (v/v) non-detoxified spruce hydrolysate. This was done to simulate sugar-rich hydrolysate with some inhibitory impurities present that may arise from insufficient separation and/or washing.\nIn the “Experiment A” samples, serum bottles were inoculated with Lactobacillus sp. at time 0 hours and incubated at room temperature for 21 days. Samples were taken periodically and analyzed for glucose and lactic acid (not shown here) using HPLC.\nIn the “Experiment B” samples, serum bottles were inoculated twice—firstly on the first day and again two weeks later, to simulate a re-infection and test the longevity of the inhibitory effect of sodium sulfite.\nIn Experiment “C”, the third group of serum bottles were inoculated after two weeks of storage at room temperature and inoculated with Lactobacillus (after 14 days)."}, "Lactobacillus sp. [2]": {"test_system": "Lactobacillus sp.", "assay": "Storage of a sugar-rich hydrolysate inoculated with Lactobacillus sp., glucose by HPLC", "format": "cell-based", "method": "as §1\nStorage of sugar-rich hydrolysate with addition of 5-40 mM was performed in accordance with the description of example 2. In this example, the samples were prepared and handled as in example 2. In other words, the “Experiment A” samples in this example are identical to those of example 2, and these were used as a reference for the “Experiment B” and “Experiment C” samples, as well as for validating the results of example 2.\nThe “Experiment B” samples were inoculated with a Lactobacillus sp. at time 0 hours, and again after 336 hours. This was done to test the infection resistance of samples that were exposed to more than one culture of Lactobacillus sp; i.e. samples that were re-infected after two weeks.\nThe samples in “Experiment C” were stored at ambient room temperature for 2 weeks, after which Lactobacillus was added to the flasks, after 336 hours. Samples were incubated for another 7 days and a total of 21 days as for the other two experiments."}}}
{"smiles": "O=S([O-])[O-].[Na+].[Na+]", "note": "[sodium sulfite]", "values": [{"measurement": "Glucose", "setting": "Lactobacillus sp. [1]", "result": 82.6, "unit": "g/L"}, {"measurement": "growth of Lactobacillus sp.", "setting": "Lactobacillus sp. [2]; 5, 10, 20 and 40 mM, three weeks of incubation", "result": "inhibited the growth"}, {"measurement": "Glucose", "setting": "Lactobacillus sp. [2]; Experiment A, 5 mM, 0 h", "result": 83.3, "unit": "g/L"}, {"measurement": "Glucose", "setting": "Lactobacillus sp. [2]; Experiment A, 5 mM, 172 h", "result": 84.0, "unit": "g/L"}, {"measurement": "Glucose", "setting": "Lactobacillus sp. [2]; Experiment A, 5 mM, 340 h", "result": 83.5, "unit": "g/L"}, {"measurement": "Glucose", "setting": "Lactobacillus sp. [2]; Experiment A, 5 mM, 510 h", "result": 83.2, "unit": "g/L"}, {"measurement": "Glucose", "setting": "Lactobacillus sp. [2]; Experiment A, 10 mM, 0 h", "result": 84.1, "unit": "g/L"}, {"measurement": "Glucose", "setting": "Lactobacillus sp. [2]; Experiment A, 10 mM, 172 h", "result": 85.3, "unit": "g/L"}, {"measurement": "Glucose", "setting": "Lactobacillus sp. [2]; Experiment A, 10 mM, 340 h", "result": 82.8, "unit": "g/L"}, {"measurement": "Glucose", "setting": "Lactobacillus sp. [2]; Experiment A, 10 mM, 510 h", "result": 82.2, "unit": "g/L"}, {"measurement": "Glucose", "setting": "Lactobacillus sp. [2]; Experiment A, 20 mM, 0 h", "result": 83.7, "unit": "g/L"}, {"measurement": "Glucose", "setting": "Lactobacillus sp. [2]; Experiment A, 20 mM, 172 h", "result": 85.6, "unit": "g/L"}, {"measurement": "Glucose", "setting": "Lactobacillus sp. [2]; Experiment A, 20 mM, 340 h", "result": 86.8, "unit": "g/L"}, {"measurement": "Glucose", "setting": "Lactobacillus sp. [2]; Experiment A, 20 mM, 510 h", "result": 84.7, "unit": "g/L"}, {"measurement": "Glucose", "setting": "Lactobacillus sp. [2]; Experiment A, 40 mM, 0 h", "result": 81.5, "unit": "g/L"}, {"measurement": "Glucose", "setting": "Lactobacillus sp. [2]; Experiment A, 40 mM, 172 h", "result": 83.2, "unit": "g/L"}, {"measurement": "Glucose", "setting": "Lactobacillus sp. [2]; Experiment A, 40 mM, 340 h", "result": 83.2, "unit": "g/L"}, {"measurement": "Glucose", "setting": "Lactobacillus sp. [2]; Experiment A, 40 mM, 510 h", "result": 83.6, "unit": "g/L"}, {"measurement": "glucose consumption", "setting": "Lactobacillus sp. [2]; Experiment A, flasks with added sodium sulfite, three weeks", "result": "no glucose consumption"}, {"measurement": "bacterial growth", "setting": "Lactobacillus sp. [2]; Experiment B (inoculated at 0 h and 336 h), 5 mM or more, 21 days", "result": "No signs of bacterial growth"}, {"measurement": "Glucose", "setting": "Lactobacillus sp. [2]; Experiment B, 5 mM, 0 h", "result": 82.3, "unit": "g/L"}, {"measurement": "Glucose", "setting": "Lactobacillus sp. [2]; Experiment B, 5 mM, 172 h", "result": 82.9, "unit": "g/L"}, {"measurement": "Glucose", "setting": "Lactobacillus sp. [2]; Experiment B, 5 mM, 340 h", "result": 82.6, "unit": "g/L"}, {"measurement": "Glucose", "setting": "Lactobacillus sp. [2]; Experiment B, 5 mM, 510 h", "result": 78.3, "unit": "g/L"}, {"measurement": "Glucose", "setting": "Lactobacillus sp. [2]; Experiment B, 10 mM, 0 h", "result": 82.9, "unit": "g/L"}, {"measurement": "Glucose", "setting": "Lactobacillus sp. [2]; Experiment B, 10 mM, 172 h", "result": 84.3, "unit": "g/L"}, {"measurement": "Glucose", "setting": "Lactobacillus sp. [2]; Experiment B, 10 mM, 340 h", "result": 81.5, "unit": "g/L"}, {"measurement": "Glucose", "setting": "Lactobacillus sp. [2]; Experiment B, 10 mM, 510 h", "result": 80.8, "unit": "g/L"}, {"measurement": "Glucose", "setting": "Lactobacillus sp. [2]; Experiment B, 20 mM, 0 h", "result": 82.8, "unit": "g/L"}, {"measurement": "Glucose", "setting": "Lactobacillus sp. [2]; Experiment B, 20 mM, 172 h", "result": 74.7, "unit": "g/L"}, {"measurement": "Glucose", "setting": "Lactobacillus sp. [2]; Experiment B, 20 mM, 340 h", "result": 86.0, "unit": "g/L"}, {"measurement": "Glucose", "setting": "Lactobacillus sp. [2]; Experiment B, 20 mM, 510 h", "result": 83.3, "unit": "g/L"}, {"measurement": "Glucose", "setting": "Lactobacillus sp. [2]; Experiment B, 40 mM, 0 h", "result": 80.2, "unit": "g/L"}, {"measurement": "Glucose", "setting": "Lactobacillus sp. [2]; Experiment B, 40 mM, 172 h", "result": 82.1, "unit": "g/L"}, {"measurement": "Glucose", "setting": "Lactobacillus sp. [2]; Experiment B, 40 mM, 340 h", "result": 82.0, "unit": "g/L"}, {"measurement": "Glucose", "setting": "Lactobacillus sp. [2]; Experiment B, 40 mM, 510 h", "result": 82.5, "unit": "g/L"}, {"measurement": "bacterial growth", "setting": "Lactobacillus sp. [2]; Experiment C (14 days storage at room temperature, then inoculated), concentrations above 5 mM", "result": "no growth was observed"}, {"measurement": "Glucose", "setting": "Lactobacillus sp. [2]; Experiment C, 5 mM, 0 h", "result": 81.2, "unit": "g/L"}, {"measurement": "Glucose", "setting": "Lactobacillus sp. [2]; Experiment C, 5 mM, 172 h", "result": 81.6, "unit": "g/L"}, {"measurement": "Glucose", "setting": "Lactobacillus sp. [2]; Experiment C, 5 mM, 340 h", "result": 85.5, "unit": "g/L"}, {"measurement": "Glucose", "setting": "Lactobacillus sp. [2]; Experiment C, 5 mM, 510 h", "result": 82.0, "unit": "g/L"}, {"measurement": "Glucose", "setting": "Lactobacillus sp. [2]; Experiment C, 10 mM, 0 h", "result": 82.2, "unit": "g/L"}, {"measurement": "Glucose", "setting": "Lactobacillus sp. [2]; Experiment C, 10 mM, 172 h", "result": 81.8, "unit": "g/L"}, {"measurement": "Glucose", "setting": "Lactobacillus sp. [2]; Experiment C, 10 mM, 340 h", "result": 84.0, "unit": "g/L"}, {"measurement": "Glucose", "setting": "Lactobacillus sp. [2]; Experiment C, 10 mM, 510 h", "result": 82.4, "unit": "g/L"}, {"measurement": "Glucose", "setting": "Lactobacillus sp. [2]; Experiment C, 20 mM, 0 h", "result": 80.8, "unit": "g/L"}, {"measurement": "Glucose", "setting": "Lactobacillus sp. [2]; Experiment C, 20 mM, 172 h", "result": 80.3, "unit": "g/L"}, {"measurement": "Glucose", "setting": "Lactobacillus sp. [2]; Experiment C, 20 mM, 340 h", "result": 84.5, "unit": "g/L"}, {"measurement": "Glucose", "setting": "Lactobacillus sp. [2]; Experiment C, 20 mM, 510 h", "result": 83.3, "unit": "g/L"}, {"measurement": "Glucose", "setting": "Lactobacillus sp. [2]; Experiment C, 40 mM, 0 h", "result": 82.0, "unit": "g/L"}, {"measurement": "Glucose", "setting": "Lactobacillus sp. [2]; Experiment C, 40 mM, 172 h", "result": 81.6, "unit": "g/L"}, {"measurement": "Glucose", "setting": "Lactobacillus sp. [2]; Experiment C, 40 mM, 340 h", "result": 86.2, "unit": "g/L"}, {"measurement": "Glucose", "setting": "Lactobacillus sp. [2]; Experiment C, 40 mM, 510 h", "result": 82.0, "unit": "g/L"}]}
